Measured values from US11291655B2, “RAD51 inhibitors” (Cyteir Therapeutics, Inc., priority 2017, dated 2022).

What follows are compounds tested on Daudi Cell Culture (assay: Compound primary screening in Daudi cell culture). Conditions: Homo sapiens, 168 h; Daudi cells, 1250 cells per well, reads on Day 7.
Type: cell-based
In short: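 Daudi cells seeded at 1250 cells per well in 130 ul medium at 37° C. and treated with serially diluted compounds added from a media master plate; read on Day 7.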

SMILES	EC50
CC(C)NC(=S)Nc1ccc(-c2ncc(-c3ccc(NC(=O)NCc4ccccn4)cc3S(=O)(=O)NC(C)(C)C)s2)cc1 [Compound M4]	< 10 µM
CC(C)NC(=S)Nc1ccc(-c2ncc(-c3ccc(NC(=O)NCc4cncnc4)cc3S(=O)(=O)NC(C)(C)C)s2)cc1 [Compound M5]	> 10 µM
CC(C)NC(=S)Nc1ccc(-c2ncc(-c3ccc(NC(=O)NCc4nccs4)cc3S(=O)(=O)NC(C)(C)C)s2)cc1 [Compound M6]	> 10 µM
CC(C)NC(=S)Nc1ccc(-c2ncc(-c3ccc(NC(=O)NC(C)c4ccccc4)cc3S(=O)(=O)NC(C)(C)C)s2)cc1 (stereo not shown) [Compound M7]	< 10 µM
CC(C)NC(=S)Nc1ccc(-c2ncc(-c3ccc(NC(=O)OC(C)c4ccccc4)cc3S(=O)(=O)NC(C)(C)C)s2)cc1 (stereo not shown) [Compound M8]	< 10 µM
CC(C)NC(=S)Nc1ccc(-c2ncc(-c3ccc(NC(=O)NCc4ccc(O)cc4)cc3S(=O)(=O)NC(C)(C)C)s2)cc1 [Compound N1, N-(tert-butyl)-5-(3-(4-hydroxybenzyl)ureido)-2-(2-(4-(3-isopropylthioureido)phenyl)thiazol-5-yl)benzenesulfonamide]	< 10 µM
CC(C)NC(=S)Nc1ccc(-c2ncc(-c3ccc(NC(=O)NCc4cccc(O)c4)cc3S(=O)(=O)NC(C)(C)C)s2)cc1 [Compound N2]	< 10 µM
CC(C)NC(=S)Nc1ccc(-c2ncc(-c3ccc(NC(=O)NCc4cn[nH]c4)cc3S(=O)(=O)NC(C)(C)C)s2)cc1 [Compound N4]	> 10 µM
CC(C)NC(=S)Nc1ccc(-c2ncc(-c3ccc(NC(=O)NCc4ncc[nH]4)cc3S(=O)(=O)NC(C)(C)C)s2)cc1 [Compound N5]	> 10 µM
CC(C)NC(=S)Nc1ccc(-c2ncc(-c3ccc(NC(=O)NCc4cnc[nH]4)cc3S(=O)(=O)NC(C)(C)C)s2)cc1 [Compound N6]	< 10 µM
CC(C)OC(=O)Nc1ccc(-c2ncc(-c3ccc(CNC(=O)C4CCNCC4)cc3S(=O)(=O)NC(C)(C)C)s2)cc1 [Compound O1]	< 10 µM
COCCC(=O)NCc1ccc(-c2cnc(-c3ccc(NC(=O)OC(C)C)cc3)s2)c(S(=O)(=O)NC(C)(C)C)c1 [Compound O2]	> 10 µM
CC(C)OC(=O)Nc1ccc(-c2ncc(-c3ccc(CNC(=O)CCO)cc3S(=O)(=O)NC(C)(C)C)s2)cc1 [Compound O3]	> 10 µM
CC(C)OC(=O)Nc1ccc(-c2ncc(-c3ccc(CNC(=O)Cc4ccccc4)cc3S(=O)(=O)NC(C)(C)C)s2)cc1 [Compound O4]	< 10 µM
CC(C)OC(=O)Nc1ccc(-c2ncc(-c3ccc(CNC(=O)Cc4ccncc4)cc3S(=O)(=O)NC(C)(C)C)s2)cc1 [Compound O5]	< 5 µM
CC(C)OC(=O)Nc1ccc(-c2ncc(-c3ccc(CNC(=O)Cc4cccnc4)cc3S(=O)(=O)NC(C)(C)C)s2)cc1 [Compound O6]	> 10 µM
CC(C)OC(=O)Nc1ccc(-c2ncc(-c3ccc(CNC(=O)c4ccncc4)cc3S(=O)(=O)NC(C)(C)C)s2)cc1 [Compound O7]	< 5 µM

SMILES	EC50
CC(C)OC(=O)Nc1ccc(-c2ncc(-c3ccc(CNC(=O)c4cncnc4)cc3S(=O)(=O)NC(C)(C)C)s2)cc1 [Compound O8]	< 10 µM
CCC(=O)NCc1ccc(-c2cnc(-c3ccc(NC(=O)OC(C)C)cc3)s2)c(S(=O)(=O)NC(C)(C)C)c1 [Compound P1]	< 10 µM
CC(C)OC(=O)Nc1ccc(-c2ncc(-c3ccc(CNC(=O)C(C)C)cc3S(=O)(=O)NC(C)(C)C)s2)cc1 [Compound P2]	< 5 µM
CC(C)OC(=O)Nc1ccc(-c2ncc(-c3ccc(CNC(=O)C(C)(C)C)cc3S(=O)(=O)NC(C)(C)C)s2)cc1 [Compound P3]	> 10 µM
CC(C)OC(=O)Nc1ccc(-c2ncc(-c3ccc(CNC(=O)c4ccccc4)cc3S(=O)(=O)NC(C)(C)C)s2)cc1 [Compound P4]	> 10 µM
CC(C)OC(=O)Nc1ccc(-c2ncc(-c3ccc(CNS(C)(=O)=O)cc3S(=O)(=O)NC(C)(C)C)s2)cc1 [Compound P5]	< 10 µM
CC(C)OC(=O)Nc1ccc(-c2ncc(-c3ccc(CNS(=O)(=O)c4ccccc4)cc3S(=O)(=O)NC(C)(C)C)s2)cc1 [Compound P6]	< 10 µM
COC(=O)NCc1ccc(-c2cnc(-c3ccc(NC(=O)OC(C)C)cc3)s2)c(S(=O)(=O)NC(C)(C)C)c1 [Compound P7]	< 10 µM
CCOC(=O)NCc1ccc(-c2cnc(-c3ccc(NC(=O)OC(C)C)cc3)s2)c(S(=O)(=O)NC(C)(C)C)c1 [Compound P8]	< 10 µM
CC(C)OC(=O)NCc1ccc(-c2cnc(-c3ccc(NC(=O)OC(C)C)cc3)s2)c(S(=O)(=O)NC(C)(C)C)c1 [Compound P9]	> 10 µM
CC(=O)NCc1ccc(-c2cnc(-c3ccc(NC(=O)OC(C)C)cc3)s2)c(S(=O)(=O)NC(C)(C)C)c1 [Compound Q1, isopropyl N-[4-[5-[4-(acetamidomethyl)-2-(tert-butylsulfamoyl)phenyl]thiazol-2-yl]phenyl]carbamate]	< 10 µM
CC(C)OC(=O)Nc1ccc(-c2ncc(-c3ccc(CNC(=O)OCc4ccccc4)cc3S(=O)(=O)NC(C)(C)C)s2)cc1 [Compound Q2, isopropyl N-[4-[5-[4-(benzyloxycarbonylaminomethyl)-2-(tert-butylsulfamoyl)phenyl]thiazol-2-yl]phenyl]carbamate]	> 10 µM
CC(C)NC(=S)Nc1ccc(-c2ncc(-c3ccc(N(C)C(=O)NCc4ccccc4)cc3S(=O)(=O)NC(C)(C)C)s2)cc1 [Compound Q3]	< 1 µM
CC(C)NC(=S)Nc1ccc(-c2ncc(-c3ccc(N(C)C(=O)N(C)Cc4ccccc4)cc3S(=O)(=O)NC(C)(C)C)s2)cc1 [Compound Q4]	< 1 µM
Cc1cc(NC(=O)OC(C)C)ccc1-c1ncc(-c2ccc(NC(=O)OC(C)C)cc2S(=O)(=O)NC(C)(C)C)s1 [Compound R1]	< 1 µM
COc1cc(-c2ncc(-c3ccc(NC(=O)OC(C)C)cc3S(=O)(=O)NC(C)(C)C)s2)ccc1NC(=O)OC(C)C [Compound R3]	< 5 µM
COc1cc(-c2ncc(-c3ccc(NC(=O)OCc4ccccc4)cc3S(=O)(=O)NC(C)(C)C)s2)ccc1NC(=O)OC(C)C [Compound R7]	< 1 µM
